Consider four molecules from PMC4106271 (Journal of Medicinal Chemistry, 2014).

The target of test [1] is T1, α1β2γ2S GABAA receptors (Homo sapiens, UniProt P14867+P47870).
T1 construct: expressed in transfected cells; host or cells: Xenopus laevis oocytes injected with cRNA (pCMV cDNA templates)
As to conditions: cited from earlier work.

Test [2] deals with T1, α1β2γ2S GABAA receptors. As to the kind of experiment: Two-microelectrode voltage clamp, IGABA modulation, α1β2γ2S. It counts as cell-based. The settings on record: 100 μM compound, GABA EC3–7, Xenopus laevis oocytes, mean ± SEM. As to the method: Preparation of stage V–VI oocytes from X. laevis and synthesis of capped runoff poly(A) cRNA transcripts from linearized cDNA templates (pCMV vector) was performed as previously described.[49] […] Follicle membranes from isolated oocytes were enzymatically digested with 2 mg/mL collagenase (type 1A, Sigma–Aldrich, Vienna, Austria).
Selected oocytes were injected with 10–50 nL of DEPC-treated water (diethyl pyrocarbonate, Sigma, Vienna, Austria) containing the different GABAA cRNAs at a concentration of approximately 300–3000 pg·nL^–1·subunit^–1.
To ensure expression of the γ2S subunit in the case of α1/2/3/5β2/3γ2S receptors, cRNAs were mixed in a ratio of 1:1:10. […] The amount of cRNAs was determined by means of a NanoDrop ND-1000 (Kisker-Biotech, Steinfurt, Germany).
Oocytes were stored at +18 °C in modified ND96 solution (90 mM NaCl, 1 mM CaCl2, 1 mM KCl, 1 mM MgCl2·6H2O, and 5 mM HEPES [4-(2-hydroxyethyl)-1-piperazineethanesulfonic acid], pH 7.4, all from Sigma–Aldrich, Vienna, Austria).
Chloride currents through GABAA receptors (IGABA) were measured at room temperature (+21 ± 1 °C) by means of a two-microelectrode voltage clamp technique making use of a Turbo TEC-05X amplifier (npi electronic, Tamm, Germany). IGABA were elicited at a holding potential of –70 mV. Data acquisition was carried out by means of an Axon Digidata 1322A interface using pCLAMP v.10 (Molecular Devices, Sunnyvale, CA). The modified ND96 solution was used as bath solution.
GABA and the studied derivatives were applied by means of the ScreeningTool (npi electronic, Tamm, Germany) fast perfusion system as described previously.[50] To elicit IGABA, the chamber was perfused with 120 μL of GABA- or compound-containing solution at a volume rate of 300 μL/s.[34] Care was taken to account for possible slow recovery from increasing levels of desensitization in the presence of high drug concentrations. The duration of washout periods was therefore extended from 1.5 min (<10 μM compounds) to 30 min (≥10 μM compounds). Oocytes with maximal current amplitudes >3 μA were discarded to exclude voltage clamp errors.
Stimulation of chloride currents by modulators of the GABAA receptor was measured at a GABA concentration eliciting between 3% and 7% of the maximal current amplitude (EC3–7). The GABA EC3–7 was determined for each oocyte individually. Enhancement of the chloride current was defined as (IGABA+compd/IGABA) – 1, where IGABA+compd is the current response in the presence of a given compound and IGABA is the control GABA current. IGABA-max reflects the maximal IGABA enhancement. Concentration–response curves were generated and the data were fitted by nonlinear regression analysis using Origin Software (OriginLab Corp.). Data were fitted to the equation 1/(1 + (EC50/[compound])^nH), where nH is the Hill coefficient. […] Statistical significance was calculated by paired Student t-test with a confidence interval of <0.05.

Structures are written as SMILES.

T1 sequence (P14867 28-456): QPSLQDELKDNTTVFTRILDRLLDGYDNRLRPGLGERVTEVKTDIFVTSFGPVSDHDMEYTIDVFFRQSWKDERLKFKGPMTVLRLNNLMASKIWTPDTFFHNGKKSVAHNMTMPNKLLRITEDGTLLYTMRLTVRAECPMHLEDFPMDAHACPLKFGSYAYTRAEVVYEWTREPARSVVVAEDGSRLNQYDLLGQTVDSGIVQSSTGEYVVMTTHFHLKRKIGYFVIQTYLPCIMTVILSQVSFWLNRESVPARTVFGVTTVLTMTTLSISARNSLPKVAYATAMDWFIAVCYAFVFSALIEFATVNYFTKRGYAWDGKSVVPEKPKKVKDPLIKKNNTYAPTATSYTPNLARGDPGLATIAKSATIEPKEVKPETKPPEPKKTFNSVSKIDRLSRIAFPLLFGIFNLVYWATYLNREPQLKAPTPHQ
T1 sequence (P47870 26-512): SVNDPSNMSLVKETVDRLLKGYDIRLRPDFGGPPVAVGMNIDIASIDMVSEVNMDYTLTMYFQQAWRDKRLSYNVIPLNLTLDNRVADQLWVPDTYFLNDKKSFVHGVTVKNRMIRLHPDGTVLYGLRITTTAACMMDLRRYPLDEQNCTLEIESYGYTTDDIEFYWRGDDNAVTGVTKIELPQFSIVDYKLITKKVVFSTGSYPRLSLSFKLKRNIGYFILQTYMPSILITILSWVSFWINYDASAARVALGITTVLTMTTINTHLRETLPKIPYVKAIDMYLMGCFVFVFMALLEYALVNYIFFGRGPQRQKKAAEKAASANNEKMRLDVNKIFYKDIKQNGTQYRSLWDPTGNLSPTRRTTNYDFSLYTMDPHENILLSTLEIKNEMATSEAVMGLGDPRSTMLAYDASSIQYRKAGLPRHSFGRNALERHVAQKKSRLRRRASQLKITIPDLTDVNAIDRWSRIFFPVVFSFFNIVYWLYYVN
T1 sequence (P18507 40-467 isoform P18507-1 partner limits assumed): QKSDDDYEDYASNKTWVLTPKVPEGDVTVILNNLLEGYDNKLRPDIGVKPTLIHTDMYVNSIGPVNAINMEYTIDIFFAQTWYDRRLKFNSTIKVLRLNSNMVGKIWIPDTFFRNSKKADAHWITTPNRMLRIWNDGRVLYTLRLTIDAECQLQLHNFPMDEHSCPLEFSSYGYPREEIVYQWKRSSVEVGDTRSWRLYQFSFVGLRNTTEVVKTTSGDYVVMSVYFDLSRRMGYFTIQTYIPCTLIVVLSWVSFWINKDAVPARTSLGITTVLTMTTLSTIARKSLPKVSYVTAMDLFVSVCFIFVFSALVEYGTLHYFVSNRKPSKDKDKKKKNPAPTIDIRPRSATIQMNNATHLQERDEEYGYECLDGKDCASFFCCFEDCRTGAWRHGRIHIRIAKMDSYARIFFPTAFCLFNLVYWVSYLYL

Consider `O=C(/C=C/C=C/c1ccc2c(c1)OCO2)N1CCCCC1` [piperine, 1-piperoylpiperidine], for which the “potentiation of IGABA” value in test [1] (100 μM) was 226% ± 26%. In addition, the nH in test [1] (Hill coefficient) was 1.5 ± 0.2.

With `CC(C)N(C(=O)c1ccc(-c2ccc3c(c2)OCO3)cc1)C(C)C` [Compound 49], the activation at 100 µM in test [2] was 30 ± 15%. As for `CCCCN(CCCC)C(=O)/C=C/c1ccc2cc3c(cc2c1)OCO3` [Compound 70], in test [2], the activation at 100 µM came to 32% and the “modulation of IGABA (%)” value is on record as 32 ± 12%. For `CCCCN(CCCC)C(=O)c1cccc2c(-c3ccc4c(c3)OCO4)cccc12` [Compound 64], the activation at 100 µM in test [2] came to 4 ± 4%.
